Measurements published in patent publication US10548896B2, “Treatment of relapsed and/or refractory solid tumors and non-Hodgkin's lymphomas” (CELGENE QUANTICEL RESEARCH, INC., priority 2016, dated 2020).
Like-named read-outs stand apart in the source and are kept apart here.

How the values were obtained:
[1] = Exploratory toxicity study in mice; type: in vivo, CD-1 mice; conditions: for reduction in neutrophil counts versus concurrent controls: 60 mg/kg/dose QOD
Source text: Additional animals were included for TK evaluation.

[2] = tested on: gene expression in MKL-1 cells; assay: Modulation of gene expression by RNA-seq, MKL-1 cells; type: cell-based, human; conditions: 10 and 100 nM, 3 days
Method: (§1) Libraries were sequenced on an Illumina NextSeq® 500 System (Illumina, San Diego, Calif.) using 75 base paired-end RNA sequencing. Sequenced reads were mapped to the hg19 human genome build and differential expression was determined by analysis of variance across all replicates relative to the vehicle control.
(§2) Sequenced reads were mapped to the hg19 human genome build using the Spliced Transcripts Alignment to a Reference (STAR) software tool (©Alexander Dobin, 2009-2016) and transcript counts were normalized using the Empirical Analysis of Digital Gene Expression Data in R (edgeR) and Differential gene expression analysis based on the negative binomial distribution (DESeq2) software tools ((Bioconductor, 2003-2017). Differential expression was determined by analysis of variance across all replicates relative to the vehicle control.

[3] = tested on: GA0087 gastric NEC patient-derived xenograft; type: in vivo; conditions: 1.5 and 5 mg/kg orally QD
[4] = tested on: ST18 and FREM2 gene expression in MS-1 tumors; assay: In vivo xenograft dose-response of PD biomarker genes, MS-1 tumors; set-up: species or system female NSG mice; conditions: 1, 2.5, or 5 mg/kg PO BID x4.5, tumors 4 hours after last dose
Source text: (§3) Female NSG mice bearing palpable hMCC MKL-1 and MS-1 tumors were randomized into four groups of three mice each. […] The fourth group was orally administered vehicle as a control on the BID schedule. Four hours after the last dosing, tumors were collected into RNAlater and stored frozen.
(§4) Total RNA was eluted in RNase-free water and analyzed by qRT-PCR.

[5] = Excretion in bile duct cannulated rats; type: in vivo; conditions: IV dosing, 24-hour period
CYP2D6 = CYP2D6 (Homo sapiens (Human), UniProt P10635); assay: CYP inhibition in pooled human liver microsomes, CYP2D6; type: in vitro ADME; conditions: up to 50 μM
Sequence of CYP2D6 (P10635 whole entry): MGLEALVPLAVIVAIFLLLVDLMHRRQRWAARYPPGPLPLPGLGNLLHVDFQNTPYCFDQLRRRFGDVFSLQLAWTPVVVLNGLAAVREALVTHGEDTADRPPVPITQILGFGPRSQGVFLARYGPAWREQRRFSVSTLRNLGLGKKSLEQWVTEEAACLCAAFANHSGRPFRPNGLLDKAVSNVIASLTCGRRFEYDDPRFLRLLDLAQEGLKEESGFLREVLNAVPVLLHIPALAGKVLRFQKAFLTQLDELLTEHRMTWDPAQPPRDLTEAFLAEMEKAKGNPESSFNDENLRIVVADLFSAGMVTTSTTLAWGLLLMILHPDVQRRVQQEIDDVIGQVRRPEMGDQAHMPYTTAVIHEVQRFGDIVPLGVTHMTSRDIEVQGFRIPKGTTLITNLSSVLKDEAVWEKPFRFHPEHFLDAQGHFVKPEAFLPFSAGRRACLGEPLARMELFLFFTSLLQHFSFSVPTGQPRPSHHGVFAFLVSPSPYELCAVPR

[6] = tested on: LU2527 lung NEC patient-derived xenograft; type: in vivo; conditions: 1.5 and 5 mg/kg orally QD
[7] = target: MDR1 (human P-gp)-MDCK cells (Homo sapiens (Human), UniProt P08183); assay: Permeability in MDR1-MDCK cells; type: in vitro ADME; conditions: B→A direction
Sequence of MDR1 (human P-gp)-MDCK cells (P08183 whole entry): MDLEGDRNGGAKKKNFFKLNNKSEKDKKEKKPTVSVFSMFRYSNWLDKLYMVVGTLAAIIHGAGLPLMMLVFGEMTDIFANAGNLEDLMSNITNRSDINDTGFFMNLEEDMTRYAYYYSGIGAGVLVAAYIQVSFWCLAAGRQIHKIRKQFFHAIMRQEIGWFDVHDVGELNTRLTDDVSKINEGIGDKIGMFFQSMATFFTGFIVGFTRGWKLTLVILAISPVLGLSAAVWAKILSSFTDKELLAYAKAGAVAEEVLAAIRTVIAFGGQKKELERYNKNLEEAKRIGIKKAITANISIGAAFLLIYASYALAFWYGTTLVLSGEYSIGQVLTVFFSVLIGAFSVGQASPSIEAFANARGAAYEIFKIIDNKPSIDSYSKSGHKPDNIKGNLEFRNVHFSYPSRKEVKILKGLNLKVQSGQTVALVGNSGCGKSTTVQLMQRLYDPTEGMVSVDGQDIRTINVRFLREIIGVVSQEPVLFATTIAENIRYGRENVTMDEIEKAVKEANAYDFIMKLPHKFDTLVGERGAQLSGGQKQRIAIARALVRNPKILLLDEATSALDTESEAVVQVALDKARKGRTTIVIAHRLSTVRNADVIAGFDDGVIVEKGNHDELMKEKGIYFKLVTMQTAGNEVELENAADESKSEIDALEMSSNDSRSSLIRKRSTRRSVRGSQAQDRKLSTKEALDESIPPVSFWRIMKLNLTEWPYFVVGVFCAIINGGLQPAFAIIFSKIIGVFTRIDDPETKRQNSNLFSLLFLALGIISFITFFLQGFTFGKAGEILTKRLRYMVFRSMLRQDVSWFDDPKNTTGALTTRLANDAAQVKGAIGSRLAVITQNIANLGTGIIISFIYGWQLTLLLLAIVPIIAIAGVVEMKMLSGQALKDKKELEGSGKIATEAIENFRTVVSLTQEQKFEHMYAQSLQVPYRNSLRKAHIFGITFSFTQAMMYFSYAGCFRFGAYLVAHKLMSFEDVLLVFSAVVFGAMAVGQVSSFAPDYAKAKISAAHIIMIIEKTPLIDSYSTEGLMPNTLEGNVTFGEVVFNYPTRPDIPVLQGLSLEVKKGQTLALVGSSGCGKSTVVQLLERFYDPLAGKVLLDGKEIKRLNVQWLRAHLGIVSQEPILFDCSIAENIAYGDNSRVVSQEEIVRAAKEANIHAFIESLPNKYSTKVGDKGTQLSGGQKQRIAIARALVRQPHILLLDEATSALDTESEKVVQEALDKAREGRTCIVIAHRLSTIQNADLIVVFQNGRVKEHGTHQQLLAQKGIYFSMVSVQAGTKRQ

LNCaP cells = assay: LNCaP cell proliferation with DHT and irradiation; type: cell-based, human; conditions: 100 nM Compound A with 10 nM DHT and 2Gy irradiation, 220 hours
Method: LNCaP cells are androgen-sensitive human prostate adenocarcinoma cells. […] The proliferation of the LNCap cells was monitored for 220 hours.

[8] = tested on: recombinant human CYP enzymes; assay: CYP reaction phenotyping with recombinant human CYP enzymes; type: in vitro ADME
Source text: The role of non-CYP enzymes in the metabolism of Compound A is yet to be ascertained.

[9] = Metabolism in cryopreserved primary hepatocytes; type: in vitro ADME, mouse, rat, dog, monkey, human
[10] = tested on: LXFS 573 SCLC patient-derived xenograft; conditions: for SS (number of study survivors): Day 133, N=8
[11] = Pharmacokinetics after IV and oral dose, rats; type: in vivo, Sprague Dawley rats; conditions: IV dosing, rats (greater than liver blood flow)
[12] = Hemodynamic and ECG parameters in anesthetized guinea pigs; type: in vivo, male Dunkin Hartley guinea pigs
Source text: Animals were monitored throughout the experiment.

[13] = Predicted human pharmacokinetics (allometric scaling)
[14] = Exploratory toxicity study in dogs; conditions: 0.5 mg/kg/day 5 days on/2 days off, Day 12
[15] = tested on: gene expression in MS-1 cells; assay: Modulation of gene expression by RNA-seq, MS-1 cells; type: cell-based, human; conditions: 10 and 100 nM, 3 days
Method: as §1, §2

CYP2C9 = CYP2C9 (Homo sapiens (Human), UniProt P11712); assay: CYP inhibition in pooled human liver microsomes, CYP2C9; type: in vitro ADME; conditions: up to 50 μM
Sequence of CYP2C9 (P11712 whole entry): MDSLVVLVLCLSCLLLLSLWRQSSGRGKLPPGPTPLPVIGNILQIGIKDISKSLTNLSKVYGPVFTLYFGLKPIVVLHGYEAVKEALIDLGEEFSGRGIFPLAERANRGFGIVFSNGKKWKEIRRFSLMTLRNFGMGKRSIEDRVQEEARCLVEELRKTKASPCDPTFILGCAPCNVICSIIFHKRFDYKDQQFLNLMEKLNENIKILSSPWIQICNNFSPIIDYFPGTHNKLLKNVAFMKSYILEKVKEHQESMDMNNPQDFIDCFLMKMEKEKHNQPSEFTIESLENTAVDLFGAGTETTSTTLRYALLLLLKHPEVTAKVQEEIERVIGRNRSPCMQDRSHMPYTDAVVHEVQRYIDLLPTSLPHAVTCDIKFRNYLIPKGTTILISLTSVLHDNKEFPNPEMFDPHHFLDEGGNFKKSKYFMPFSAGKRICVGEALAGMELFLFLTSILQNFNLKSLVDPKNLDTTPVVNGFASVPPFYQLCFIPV

[16] = 4-week toxicity study with 4-week recovery in mice (incl. toxicokinetics); conditions: QDx5/week schedule
[17] = tested on: LU1480 SCLC patient derived xenograft; assay: Efficacy in LU1480 HuPrime SCLC PDX model; type: in vivo, female BALB/c nude mice
[18] = 4-week oral gavage pivotal toxicity study with 4-week recovery in dogs (incl. ECG, toxicokinetics); type: in vivo, Beagle dogs
Method: The QTc interval was calculated using the Fridericia method.

NCI-H1417 SCLC xenograft [19] = assay: Efficacy in NCI-H1417 SCLC xenograft model; type: in vivo, female athymic nude mice
[20] = tested on: LXFS 573 SCLC patient derived xenograft; assay: Efficacy in LXFS 573 SCLC PDX model; type: in vivo, female NMRI-Foxn1nu mice; conditions: 5 to 10 mg/kg oral
[21] = tested on: LU2514 SCLC patient derived xenograft; assay: Efficacy in LU2514 HuPrime SCLC PDX model; type: in vivo, female BALB/c nude mice
Method: Tumor growth inhibition analysis was performed on Day 28 post treatment, the last day of dosing.

[22] = tested on: ST18 and FREM2 gene expression in MKL-1 tumors; assay: In vivo xenograft dose-response of PD biomarker genes, MKL-1 tumors; set-up: species or system female NSG mice; conditions: 1, 2.5, or 5 mg/kg PO BID x4.5, tumors 4 hours after last dose
Source text: as §3, §4

NCI-H1417 SCLC xenograft [23] = conditions: etoposide monotherapy 24 mg/kg SC QDx3

COc1ccc(-c2c(-c3ccc(C#N)c(F)c3)nc(N3CCC(N)CC3)n(C)c2=O)cc1F [Compound A, 4-[2-(4-amino-piperidin-1-yl)-5-(3-fluoro-4-methoxy-phenyl)-1-methyl-6-oxo-1,6-dihydro-pyrimidin-4-yl]-2-fluoro-benzonitrile]
increase in platelets on Day 8 ([1]; 10 mg/kg/day 5 days on/2 days off, after 2-day dosing holiday): > 2 fold
reduction in neutrophil counts versus concurrent controls ([1]; females): 66%
reduction in neutrophil counts versus concurrent controls ([1]; males): 83%
greatest reduction in neutrophil counts versus concurrent controls and pre-study values ([1]; 5 days on/2 days off schedule): approximately 90%
ST18 and FREM2 gene expression changes (upregulated) [2]: at least 2 fold
tolerability [3]: acceptably tolerated
change in ST18 and FREM2 gene expression [4]: ≥ 2 fold
dose excreted intact (urine plus bile) [5]: 26.3 % of the dose
dose excreted intact in urine [5]: 8.5 % of dose
direct inhibitory effect on CYP2D6 (CYP2D6): little to no direct inhibitory effect
tolerability [6]: acceptably tolerated
permeability [7]: 16.5 ×10⁻⁶ cm/s
LNCaP cell proliferation (LNCaP cells): significantly inhibits LNCaP cell proliferation
enzyme responsible for oxidative metabolism [8]: CYP3A4 appears to be predominantly responsible
metabolic stability [9]: greater in rat and dog followed by human and monkeys while being least stable in mouse hepatocytes
SS (number of study survivors) ([10]; Compound A at 5 mg/kg/day PO): 7
MTV of study survivors on Day 133 ([10]; Compound A monotherapy 5 mg/kg PO daily): 1064 mm3
study survivors on Day 133 ([10]; Compound A monotherapy 5 mg/kg PO daily, n=8): seven
systemic clearance [11]: high
maximum increase of QTcB interval versus time-matched vehicle ([12]; 10 mg base/kg IV): approximately 9%
maximum increase of QTcB interval versus time-matched vehicle ([12]; 15 mg base/kg IV): ~13%
maximum increase of QTcB interval versus time-matched vehicle ([12]; 20 mg base/kg IV): ~16%
maximum suppression of HR versus vehicle ([12]; 20 mg base/kg IV, 9 minutes into 10-minute infusion): 19%
effect on MAP or its components ([12]; 5 to 20 mg base/kg IV versus time-matched vehicle): No notable effect
predicted clearance [13]: 9.4 mL/min/kg
body weight loss of female sacrificed moribund [14]: 10.8%
ST18 and FREM2 gene expression changes (upregulated) [15]: at least 2 fold
direct inhibitory effect on CYP2C9 (CYP2C9): little to no direct inhibitory effect
NOAEL [16]: 5 mg base/kg/dose
STD10 [16]: > 45 mg base/kg/dose
Median Tumor Volumes (mm^3) Day 1 ([17]; 5 mg base/kg PO QDx21): 89.5 mm^3
Median Tumor Volumes (mm^3) Day 1 ([17]; 10 mg base/kg PO QDx21): 87.1 mm^3
animals with moribund euthanasia ([18]; 0.375 to 1.5 mg base/kg/dose QW, study Days 13 to 23): 11 animals
NOEL for CV and respiratory changes ([18]; QW): 0.75 mg base/kg/dose
Median Tumor Volumes (mm^3) Day 0 (NCI-H1417 SCLC xenograft [19]; 2.5 mg base/kg PO QDx65): 109.2 mm^3
mean body weight gain by end of study (NCI-H1417 SCLC xenograft [19]; 2.5 mg base/kg PO QDx65): 1%
Median Tumor Volumes (mm^3) Day 0 (NCI-H1417 SCLC xenograft [19]; 5 mg base/kg PO QDx65): 108.2 mm^3
mean body weight gain by end of study (NCI-H1417 SCLC xenograft [19]; 5 mg base/kg PO QDx65): 7.5%
mean body weight losses [20]: ≤ 3%
Median Tumor Volumes (mm^3) Day 1 ([21]; 5 mg base/kg PO QDx28): 173.2 mm^3
Median Tumor Volumes (mm^3) Day 1 ([21]; 10 mg base/kg PO QDx28): 173.7 mm^3
mean body weight losses ([21]; both studies with LU2514 model): < 10%
change in ST18 and FREM2 gene expression [22]: ≥ 2 fold

COc1cc([C@@H]2c3cc4c(cc3[C@@H](O[C@@H]3O[C@@H]5CO[C@@H](C)O[C@H]5[C@H](O)[C@H]3O)[C@H]3COC(=O)[C@H]23)OCO4)cc(OC)c1O [Etoposide, etoposide]
% TGD (NCI-H1417 SCLC xenograft [23]): 92%
TGD (NCI-H1417 SCLC xenograft [23]): 24 days
median TTE (NCI-H1417 SCLC xenograft [23]): 50 days
median TTE ([10]; Etoposide at 24 mg/kg/day SC days 1-3 + Vehicle PO days 4-133): 63 days
SS (number of study survivors) ([10]; Etoposide at 24 mg/kg/day SC days 1-3 + Vehicle): 0
